Reference: PubChem BioAssay AID328 (DTP/NCI, 2004)
Values joined by “and” are separate entries in the source; they are usually repeats but may differ in a detail not shown here. Equal values may be shown once. Inconclusive results and toxic doses are left out. Rule for the calls: active = survival T/C of 150% or more; inactive = T/C below 125% in these data.

Test system: BDF1 mice, P388 leukemia ip, median survival T/C
Assay: NCI In Vivo Anticancer Drug Screen. Data for tumor model P388 Leukemia (intraperitoneal) in B6D2F1 (BDF1) mice
Details: endpoint: median survival time, higher = longer survival
Outline: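 Each value expresses how treatment altered survival: treated-mouse outcome over vehicle-mouse outcome, both groups bearing the transplanted tumour.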

[1] = dose: 100.0 mg/kg/injection, schedule: Q01DX009 (ip), vehicle: saline
[2] = dose: 200.0 mg/kg/injection, schedule: Q01DX009 (ip), vehicle: saline
[3] = dose: 100.0 mg/kg/injection, schedule: Q01DX009 (ip), vehicle: saline with Tween-80
[4] = dose: 200.0 mg/kg/injection, schedule: Q04DX003 (ip), vehicle: saline with Tween-80

Measured: T/C

COC(CN(C)CC(OC)OC)OC
inactive: [1] 90 % of control | [2] 100 % of control | dose: 400.0 mg/kg/injection, schedule: Q01DX009 (ip), vehicle: saline 100 % of control

CC1=CC(=NN=c2cc(C)n([O-])c(C)c2)C=C(C)[N+]1=O
inactive: dose: 12.5 mg/kg/injection, schedule: Q01DX010 (ip), vehicle: saline 91 % of control and 104 % of control and 114 % of control

OCCc1ccccc1
inactive: dose: 100.0 mg/kg/injection, schedule: Q01DX009 (ip), vehicle: saline sonified 100 % of control | dose: 200.0 mg/kg/injection, schedule: Q01DX009 (ip), vehicle: saline sonified 100 % of control

COC(=O)c1oc(C(=O)OC)c(OCc2ccccc2)c1OCc1ccccc1
inactive: dose: 50.0 mg/kg/injection, schedule: Q01DX001 (ip), vehicle: saline sonified 100 % of control | dose: 100.0 mg/kg/injection, schedule: Q01DX001 (ip), vehicle: saline sonified 109 % of control | dose: 200.0 mg/kg/injection, schedule: Q01DX001 (ip), vehicle: saline sonified 90 % of control

C(=N\N(c1ccccc1)c1ccccc1)/c1ccc(/C=N/N(c2ccccc2)c2ccccc2)cc1
inactive: dose: 100.0 mg/kg/injection, schedule: Q04DX003 (ip), vehicle: Klucel (hydroxypropylcellulose) (HPC) 100 % of control | dose: 200.0 mg/kg/injection, schedule: Q04DX003 (ip), vehicle: Klucel (hydroxypropylcellulose) (HPC) 100 % of control | dose: 400.0 mg/kg/injection, schedule: Q04DX003 (ip), vehicle: Klucel (hydroxypropylcellulose) (HPC) 95 % of control

O=C1C(N2CCOCC2)=Cc2cccc3cccc1c23
inactive: dose: 50.0 mg/kg/injection, schedule: Q04DX003 (ip), vehicle: saline with Tween-80 99 % of control | [3] 101 % of control | dose: 100.0 mg/kg/injection, schedule: Q04DX003 (ip), vehicle: saline with Tween-80 96 % of control | dose: 200.0 mg/kg/injection, schedule: Q01DX009 (ip), vehicle: saline with Tween-80 90 % of control | [4] 88 % of control | dose: 400.0 mg/kg/injection, schedule: Q04DX003 (ip), vehicle: saline with Tween-80 99 % of control

C1CC2CCC[N]3C2C(C1)[O][Pb]31[O]C2CCCC3CCC[N]1C32 (configuration not stated)
inactive: dose: 133.0 mg/kg/injection, schedule: Q04DX003 (ip), vehicle: saline with Tween-80 96 % of control and 100 % of control | [4] 100 % of control and 104 % of control | dose: 300.0 mg/kg/injection, schedule: Q04DX003 (ip), vehicle: saline with Tween-80 95 % of control and 104 % of control

COc1cc2cnc3c4cc(OC)c(OC)cc4ccc3c2cc1OC
inactive: dose: 20.0 mg/kg/injection, schedule: Q01DX009 (ip), vehicle: saline with Tween-80 100 % of control | dose: 40.0 mg/kg/injection, schedule: Q01DX009 (ip), vehicle: saline with Tween-80 100 % of control | dose: 80.0 mg/kg/injection, schedule: Q01DX009 (ip), vehicle: saline with Tween-80 115 % of control | dose: 120.0 mg/kg/injection, schedule: Q01DX009 (ip), vehicle: saline with Tween-80 100 % of control | dose: 240.0 mg/kg/injection, schedule: Q01DX009 (ip), vehicle: saline with Tween-80 100 % of control

CN(C)C(C#N)c1c[nH]c2ccccc12 (configuration not stated)
inactive: dose: 6.25 mg/kg/injection, schedule: Q01DX009 (ip), vehicle: Klucel (hydroxypropylcellulose) (HPC) 105 % of control | dose: 6.25 mg/kg/injection, schedule: Q04DX003 (ip), vehicle: Klucel (hydroxypropylcellulose) (HPC) 109 % of control | dose: 12.5 mg/kg/injection, schedule: Q01DX009 (ip), vehicle: Klucel (hydroxypropylcellulose) (HPC) 100 % of control | dose: 12.5 mg/kg/injection, schedule: Q04DX003 (ip), vehicle: Klucel (hydroxypropylcellulose) (HPC) 100 % of control | dose: 25.0 mg/kg/injection, schedule: Q01DX009 (ip), vehicle: Klucel (hydroxypropylcellulose) (HPC) 94 % of control | dose: 25.0 mg/kg/injection, schedule: Q04DX003 (ip), vehicle: Klucel (hydroxypropylcellulose) (HPC) 100 % of control

OCC(O)C1CCCCN1 (configuration not stated)
inactive: dose: 50.0 mg/kg/injection, schedule: Q01DX009 (ip), vehicle: saline 104 % of control | [1] 106 % of control | [2] 104 % of control

CC(=O)OC1CCC2(C)CCCC(O)C2(O)C1 (configuration not stated)
inactive: [3] 103 % of control | dose: 100.0 mg/kg/injection, schedule: Q04DX003 (ip), vehicle: saline 110 % of control | dose: 200.0 mg/kg/injection, schedule: Q04DX003 (ip), vehicle: saline 90 % of control | dose: 400.0 mg/kg/injection, schedule: Q01DX009 (ip), vehicle: saline with Tween-80 103 % of control | dose: 400.0 mg/kg/injection, schedule: Q04DX003 (ip), vehicle: saline 110 % of control

Cc1nnc2c(Cl)nccn12
inactive: dose: 100.0 mg/kg/injection, schedule: Q01DX001 (ip), vehicle: saline with Tween-80 106 % of control | dose: 200.0 mg/kg/injection, schedule: Q01DX001 (ip), vehicle: saline with Tween-80 106 % of control
